Reference: patent US20260256807A1, “SUBSTITUTED PYRAZOLES AND IMIDAZOLES AS OREXIN RECEPTOR ANTAGONISTS COMPOSITION, METHODS FOR TREATING NEUROLOGICAL AND PSYCHOLOGICAL DISORDERS” (HAGER BIOSCIENCES, LLC, priority 2022, published 2026)

Tests used:
[1] = target: T1, human orexin-2 receptor (Homo sapiens, UniProt O43614); assay: Intracellular calcium (FLIPR) antagonist assay, CHO cells expressing human orexin-2 receptor, 3 nM orexin-A; format: cell-based; settings: 1 uM compound, orexin-A 3 nM; for inhibition at 1 µM: CHO, read-out: OX2R % Inh. @ 1uM
T1 construct: expressed in transfected cells; host or cells: CHO cells (G418 selection)
T1 sequence (O43614 1-444): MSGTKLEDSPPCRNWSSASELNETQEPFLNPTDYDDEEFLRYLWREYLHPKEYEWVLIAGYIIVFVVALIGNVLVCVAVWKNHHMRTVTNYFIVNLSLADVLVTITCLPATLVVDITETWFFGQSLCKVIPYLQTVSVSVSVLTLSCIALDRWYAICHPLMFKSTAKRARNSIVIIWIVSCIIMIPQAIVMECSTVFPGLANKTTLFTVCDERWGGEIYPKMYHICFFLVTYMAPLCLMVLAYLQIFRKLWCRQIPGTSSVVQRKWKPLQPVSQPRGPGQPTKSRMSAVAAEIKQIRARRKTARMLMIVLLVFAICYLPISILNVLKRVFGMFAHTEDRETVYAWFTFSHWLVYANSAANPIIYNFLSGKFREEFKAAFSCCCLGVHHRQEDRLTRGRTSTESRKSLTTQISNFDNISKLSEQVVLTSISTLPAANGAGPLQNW
Experimental: (§1) Antagonistic activities on both orexin receptors (i.e., to identify Orexin Receptor Antagonists) have been measured for each example compound using the in vitro assays (intracellular calcium measurements) as described herein. Other assays may also be used to identify Orexin Receptor Antagonists as would be understood by those of ordinary skill in the art. Chinese hamster ovary (CHO) cells expressing the human orexin-1 receptor and the human orexin-2 receptor, respectively, are grown in culture medium (Ham F-12 with L-Glutamine) containing 300 μg/mL G418, 100 U/mL penicillin, 100 μg/mL streptomycin and 10% heat inactivated fetal calf serum (FCS). The cells are seeded at 20′000 cells/well into 384-well black clear bottom sterile plates (Greiner). The seeded plates are incubated overnight at 37° C. in 5% CO2. Human orexin-A as an agonist is prepared as 1 mM stock solution in MeOH: water (1:1), diluted in HBSS containing 0.1% bovine serum albumin (BSA), NaHC03: 0.375 g/L and 20 mM HEPES for use in the assay at a final concentration of 3 nM.
(§2) Antagonists were prepared as 10 mM stock solution in DMSO, then diluted in 384-well plates using DMSO followed by a transfer of the dilutions into in HBSS containing 0.1% bovine serum albumin (BSA), NaHC03: 0.375 g/L and 20 mM HEPES. On the day of the assay, 50 μL of staining buffer (HBSS containing 1% FCS, 20 mM HEPES, NaHC03: 0.375 g/L, 5 mM probenecid (Sigma) and 3 μM of the fluorescent calcium indicator fluro-4 AM (1 mM stock solution in DMSO, containing 10% pluronic) is added to each well. The 384-well cell-plates are incubated for 50 min at 37° C. in 5% C02 followed by equilibration at RT for 30 min before measurement. Within the Fluorescent Imaging Plate Reader (FLIPR Tetra, Molecular Devices), potential Orexin Receptor Antagonists were added to the plate in a volume of 10 μl/well, incubated for 120 min and finally 10 μL/well of agonist is added. Fluorescence was measured for each well at 1 second intervals, and the height of each fluorescence peak compared to the height of the fluorescence peak induced by 3 nM orexin-A with vehicle in place of antagonist. The IC50 value (the concentration of compound needed to inhibit 50% of the agonistic response) was determined and normalized using the obtained IC50 value of an on-plate reference compound. Optimized conditions were achieved by adjustment of pipetting speed and cell splitting regime. The calculated IC50 values fluctuate depending on the daily cellular assay performance, as is known to those skilled in the art. In the case where IC50 values have been determined several times for the same compound, the geometric mean has been given.

[2] = target: T2, human orexin-1 receptor (Homo sapiens, UniProt O43613); assay: Intracellular calcium (FLIPR) antagonist assay, CHO cells expressing human orexin-1 receptor, 3 nM orexin-A; format: cell-based; settings: 1 uM compound, orexin-A 3 nM; for inhibition at 1 µM: CHO, read-out: OXIR % Inh. @ 1 uM
T2 construct: expressed in transfected cells; host or cells: CHO cells (G418 selection)
T2 sequence (O43613 1-425): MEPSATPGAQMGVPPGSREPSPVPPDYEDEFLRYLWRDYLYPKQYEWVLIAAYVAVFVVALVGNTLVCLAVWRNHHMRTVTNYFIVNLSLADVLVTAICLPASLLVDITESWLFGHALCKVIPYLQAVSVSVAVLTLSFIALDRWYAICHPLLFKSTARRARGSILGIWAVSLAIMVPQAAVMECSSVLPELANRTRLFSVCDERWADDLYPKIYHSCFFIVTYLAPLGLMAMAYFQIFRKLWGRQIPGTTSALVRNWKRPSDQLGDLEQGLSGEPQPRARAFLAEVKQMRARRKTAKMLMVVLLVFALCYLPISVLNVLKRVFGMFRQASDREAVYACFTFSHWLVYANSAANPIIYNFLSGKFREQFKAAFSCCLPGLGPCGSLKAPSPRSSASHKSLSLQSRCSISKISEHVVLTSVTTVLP
Experimental: as §1, §2

SMILES | inhibition at 1 µM [1] [%] | inhibition at 1 µM [2] [%] | OX2R % Inh. @ 1uM [1] [%] | OXIR % Inh. @ 1 uM [2] [%]
O=C(c1c(-c2ccccc2)nn2ccccc12)N1CCCN(c2nc3cc(Cl)ccc3o2)CC1 [Example 1] | 94.9 | 98.7 | – | –
O=C(c1c(-c2ccccc2)nn2c1COCC2)N1CCCN(c2nc3cc(Cl)ccc3o2)CC1 [Example 2] | 43.4 | 64.2 | – | –
O=C(c1c(-c2ccccc2)nc2ccccn12)N1CCCN(c2nc3cc(Cl)ccc3o2)CC1 [Example 3] | 71.8 | 94 | – | –
C[C@@H]1CCN(c2nc3cc(Cl)ccc3o2)CCN1C(=O)c1c(-c2ccccc2)nc2ccccn12 [Example 5] | 94.5 | 98.5 | – | –
C[C@@H]1CCN(c2nc3cc(Cl)ccc3o2)CCN1C(=O)c1c(-c2ccccc2)nc2n1CCCC2 [Example 6] | 33.4 | 62.5 | – | –
C[C@@H]1CCN(c2nc3cc(Cl)ccc3o2)CCN1C(=O)c1c(-c2ccccc2)nn2c1COCC2 [Example 7] | 54.5 | 91 | – | –
C[C@@H]1CCN(c2nc3cc(Cl)ccc3o2)CCN1C(=O)c1nn2ccccc2c1-c1ccccc1 [Example 8] | 82.7 | 98 | – | –
C[C@@H]1CCN(c2nc3cc(Cl)ccc3o2)CCN1C(=O)c1nc2n(c1-c1ccccc1)CCCC2 [Example 9] | 12.2 | 49.6 | – | –
C[C@@H]1CCN(c2nc3cc(Cl)ccc3o2)CCN1C(=O)c1c(-c2ccccc2)nn2c1CCCC2 [Example 10] | 55.1 | 85.9 | – | –
COc1ccc(N2CC[C@@H](C)N(C(=O)c3c(-c4ccccc4)nn4c3COCC4)CC2)nn1 [Example 11] | 21.5 | 12.2 | – | –
COc1ccc(N2CC[C@@H](C)N(C(=O)c3c(-c4ccccc4)nn4c3COCC4)CC2)nc1 [Example 12] | 25 | 14.7 | – | –
COc1ccc(N2CC[C@@H](C)N(C(=O)c3c(-c4ccccc4)nn4ccccc34)CC2)nn1 [Example 13] | 38.6 | 45.1 | – | –
COc1ccc(N2CC[C@@H](C)N(C(=O)c3c(-c4ccccc4)nn4ccccc34)CC2)nc1 [Example 14] | 57.6 | 91.6 | – | –
COc1ccc(N2CC[C@@H](C)N(C(=O)c3c(-c4ccccc4)nn4ccccc34)CC2)cn1 [Example 15] | 37.1 | 38.7 | – | –
COc1ccc(N2CC[C@@H](C)N(C(=O)c3c(-c4ccccc4)nn4c3COCC4)CC2)cn1 [Example 16] | 3.3 | -21.1 | – | –
C[C@@H]1CCN(c2ccc(C(F)(F)F)cn2)CCN1C(=O)c1c(-c2ccccc2)nn2ccccc12 [Example 17] | 66.7 | 96.3 | – | –
C[C@@H]1CCN(c2ccc(C(F)(F)F)cn2)CCN1C(=O)c1c(-c2ccccc2)nn2c1COCC2 [Example 18] | 35.5 | 82.5 | – | –
C[C@@H]1CCN(c2ccc(C(F)(F)F)cn2)CCN1C(=O)c1c(-c2ccccc2)nc2ccccn12 [Example 19] | 48.2 | 94.5 | – | –
COc1ccc(N2CC[C@@H](C)N(C(=O)c3c(-c4ccccc4)nc4ccccn34)CC2)nc1 [Example 20] | 32.2 | 62.1 | – | –
COc1ccc(N2CC[C@@H](C)N(C(=O)c3c(-c4ccccc4)nc4ccccn34)CC2)nn1 [Example 21] | 23.7 | 20.9 | – | –

SMILES | inhibition at 1 µM [1] [%] | inhibition at 1 µM [2] [%] | OX2R % Inh. @ 1uM [1] [%] | OXIR % Inh. @ 1 uM [2] [%]
COc1ccc(N2CC[C@@H](C)N(C(=O)c3c(-c4ccccc4)nc4ccccn34)CC2)cn1 [Example 22] | 28.3 | 15 | – | –
C[C@@H]1CCN(c2ccc(F)cn2)CCN1C(=O)c1c(-c2ccccc2)nc2ccccn12 [Example 23] | 32.7 | 18.6 | – | –
C[C@@H]1CCN(c2ccc(F)cn2)CCN1C(=O)c1c(-c2ccccc2)nn2ccccc12 [Example 24] | 46 | 44.2 | – | –
C[C@@H]1CCN(c2ccc(F)cn2)CCN1C(=O)c1c(-c2ccccc2)nn2c1COCC2 [Example 25] | 7.7 | 11.6 | – | –
Cc1cc(C)nc(N2CC3CN(C(=O)c4c(-c5ccccc5)nc5ccc(F)cn45)CC3C2)n1 (centres unmarked) [Example 26] | 33.8 | 1.61 | – | –
Cc1cc(C)nc(N2CC3CN(C(=O)c4c(-c5ccc(F)cc5)nc5ccccn45)CC3C2)n1 (centres unmarked) [Example 27] | 14.2 | 6.42 | – | –
Cc1cc(C)nc(N2CC3CN(C(=O)c4c(-c5ccccc5F)nc5ccccn45)CC3C2)n1 (centres unmarked) [Example 28] | 36.6 | 18.3 | – | –
Cc1cc(C)nc(N2CC3CN(C(=O)c4c(-c5ccccc5F)nc5ccccn45)CC3C2)n1 (centres unmarked) [Example 29] | – | – | 34.14 | 19.54
Cc1cc(C)nc(N2CC3CN(C(=O)c4c(-c5ccc(F)cc5)nn5ccccc45)CC3C2)n1 (centres unmarked) [Example 30] | 36.8 | 28.3 | – | –
Cc1cc(C)nc(N2CC3CN(C(=O)c4nc5ccccn5c4-c4ccc(F)cc4)CC3C2)n1 (centres unmarked) [Example 31] | 3.74 | 8.04 | – | –
Cc1cc(C)nc(N2CC3CN(C(=O)c4nc5ccccn5c4-c4ccccc4F)CC3C2)n1 (centres unmarked) [Example 32] | 12.1 | 4.01 | – | –
Cc1cc(C)nc(N2CC3CN(C(=O)c4nn5ccccc5c4-c4ccc(F)cc4)CC3C2)n1 (centres unmarked) [Example 33] | 17.6 | 5 | – | –
Cc1cc(C)nc(N2CC3CN(C(=O)c4nn5ccccc5c4-c4ccccc4F)CC3C2)n1 (centres unmarked) [Example 34] | 31.4 | 2.36 | – | –
O=C(c1c(-c2ccccc2)nc2ccc(F)cn12)N1CC2CN(c3ccc(C(F)(F)F)cn3)CC2C1 (centres unmarked) [Example 35] | 22.5 | 59.1 | – | –
O=C(c1c(-c2ccccc2)nc2cc(F)ccn12)N1CC2CN(c3ccc(C(F)(F)F)cn3)CC2C1 (centres unmarked) [Example 36] | 23.6 | 35 | – | –
Cc1cc(C)nc(N2CC3CN(C(=O)c4c(-c5ccccc5)nc5cc(C(F)(F)F)ccn45)CC3C2)n1 (centres unmarked) [Example 37] | 46.9 | 5.33 | – | –
Cc1cc(C)nc(N2CC3CN(C(=O)c4ccccc4-c4cnc5ccccn45)CC3C2)n1 (centres unmarked) [Example 38] | 3.32 | 6.86 | – | –
Cc1cc(C)nc(N2CC3CN(C(=O)c4c(-c5ccc(F)cc5)nn5c4COCC5)CC3C2)n1 (centres unmarked) [Example 39] | – | 14.9 | 29.13 | –
Cc1cc(C)nc(N2CC3CN(C(=O)c4c(-c5ccc(F)cc5)nn5c4COCC5)CC3C2)n1 (centres unmarked) [Example 40] | – | – | 7.18 | 11.58
Cc1cc(C)nc(N2CC3CN(C(=O)c4c(-c5ccccc5)nn5c4COCC5)CC3C2)n1 (centres unmarked) [Example 41] | 11.5 | 6 | – | –
